{
  "source": "patent EP4311546A1",
  "about": "“COMBINATION THERAPY FOR MYOPATHIES” (Dynacure, priority 2022, dated 2024)",
  "key": {"[1]": {"test_system": "dynamin 2", "details": "dynamin 2 inhibitor, value stated in the list of known inhibitors; cited from earlier work"}, "[2]": {"test_system": "mitochondrial division", "details": "mitochondrial division inhibitor; cited from earlier work"}, "[3]": {"test_system": "Mtm1^-/y mice", "assay": "Lifespan / survival of Mtm1-/y mice (XL-CNM model)", "type": "in vivo", "details": "at the end of the study (12 weeks old), ASO 3 mg/kg i.p. weekly from 4 weeks, tamoxifen 10 mg/kg of diet", "method": "(§1) For experiments in mice, the ASOs were injected intraperitonally (i.p.) weekly from 4 weeks to 12 weeks of age at 3 mg/kg.\n(§2) For experiments in mice, pellets of diet were supplemented with tamoxifen citrate (SAFE; […]) to achieve 10 mg of tamoxifen free base per kg of chow. Pellets of diet devoid of tamoxifen were used as a control (to be administered with ASO-ctrl).\n(§3) Mtm1 deficient mice in the 129Pas genetic background were obtained from Dr. Laporte (IGBMC, Illkirch, France). Wild type males were bred with Mtm1^+/- heterozygous females. The Mtm1^+/y (wild type, i.e. WT) and Mtm1^-/y (mutant) males in the progeny were used in the experiments. The Mtm1^-/y knock-out mice reproduce the hallmarks of XL-CNM patients such as abnormal position of the organelles, defects in the localization of the nuclei and muscle atrophy, associated with progressive muscle weakness including respiratory weakness, leading to death between 6 and 14 weeks of age (Buj-Bello et al., Proc Natl Acad Sci USA, 2002; 99: 15060-15065; Al-Qusairi,et al, Proc Natl Acad Sci USA, 2009; 106: 18763-18768).\nAnimals were followed for up to 12 weeks old, with weekly recordings of clinical signs and survival. Treatments were started when disease started to manifest, i.e. at 4 weeks of age.\n(§4) Weekly i.p. injections of 3 mg/kg of antisense were performed in the Mtm1^+/y and Mtm1^-/y mice, from 4 to 12 weeks of age. […]"}, "[4]": {"test_system": "Mtm1^-/y mice", "assay": "Disease Severity Score (DSS) in Mtm1-/y mice", "type": "in vivo", "details": "at 12 weeks old, score 0 (no disease) to 5 (most severe), ASO 3 mg/kg i.p. weekly, tamoxifen 10 mg/kg of diet", "method": "as §1, §2, §3, §4\nDisease Severity Score was calculated to monitor the clinical appearance of mice (n = 10 per group). […]"}, "[5]": {"test_system": "DNM2", "assay": "DNM2 protein expression by Western blot in C2C12 cells", "type": "cell-based, mouse", "details": "C2C12 cells, 5, 10 or 20 µM (with PBS control, or with ASO-ctrl)", "protocol": "For experiments in mouse immortalized myoblasts (C2C12 cells), the ASOs were electroporated at 2 μM in 2 mm cuvettes, at 150V for 5 ms (one pulse) for 2 million cells in a volume of 400 μl PBS, or in 4mm cuvettes, at [MUT] for 5 ms (one pulse) for 4 million cells in a volume of 800 μl PBS. […] The [MUT] immortalized myoblast cells were cultured in DMEM with 1g/l glucose (Gibco) with 20% FBS (Gibco) + 40 μg/ml Gentamycin (Gibco). The cells were electroporated with either PBS, ASO-ctrl or ASO-Dnm2 at 2 μM, and/or treated with 4-OH-tamoxifen at 20 μM in the cell culture medium, as described in 1.1. The experiment was done in duplicate wells, in 6-well plates. After 24 hrs of treatment, cells were collected and either RNA was extracted for RT-qPCR or protein was extracted for Western Blot. Myoblast C2C12 cells, treated with either (i) PBS + Tamoxifen (20 μM), (ii) ASO ctrl (2 μM), (iii) ASO ctrl (2 μM) + Tamoxifen (20 μM), (iv) ASO-Dnm2 (2 μM) or (v) ASO-Dnm2 (2 μM) + Tamoxifen (20 μM), were lysed in RIPA buffer (Thermo Scientific) supplemented with Halt protease inhibitor cocktail (Thermo Scientific). Protein concentration was determined with the BioRad DC protein Assay kit. Samples were diluted in RIPA buffer, NuPAGE LDS sample buffer and NuPAGE Sample Reducing Agent and denaturated at 70°C for 10 min. […]"}, "[6]": {"test_system": "Mtm1^-/y mice", "assay": "Body weight of Mtm1-/y mice", "type": "in vivo", "details": "at 12 weeks, mean ± SD, ASO 3 mg/kg i.p. weekly, tamoxifen 10 mg/kg of diet", "method": "as §1, §2, §3\nWeekly i.p. injections of 3 mg/kg of antisense were performed in the Mtm1^+/y and Mtm1^-/y mice, from 4 to 12 weeks of age. Alongside these injections, mice were fed pellets of diets containing tamoxifen citrate (10 mg/kg) or devoid of tamoxifen. […]"}, "[7]": {"test_system": "Dnm2 mRNA", "assay": "Dnm2 mRNA expression by RT-qPCR in C2C12 cells", "type": "cell-based", "details": "C2C12 mouse myoblast cells, 24 hrs, 20 µM (with PBS control, or with ASO-ctrl)", "method": "For experiments in mouse immortalized myoblasts (C2C12 cells), the ASOs were electroporated at 2 µM in 2 mm cuvettes, at 150V for 5 ms (one pulse) for 2 million cells in a volume of 400 µl PBS, or in 4mm cuvettes, at 300V for 5 ms (one pulse) for 4 million cells in a volume of 800 µl PBS. Table 2. Antisense oligonucleotides\nFor experiments conducted in mouse immortalized myoblasts (C2C12 cells), 4-hydroxytamoxifen (5 mg/ml solution, Sigma #SML-1666) was used. The stock solution at 13mM in ethanol:isopropanol (95:5) was diluted in cell culture medium to obtain a working concentration of 20 µM. For vehicle control cells (no treatment), ethanol:isopropanol (95:5) was added to the cell culture medium.\nThe […] immortalized myoblast cells were cultured in DMEM with 1g/l glucose (Gibco) with 20% FBS (Gibco) + 40 µg/ml Gentamycin (Gibco). The cells were electroporated with either PBS, ASO-ctrl or ASO-Dnm2 at 2 µM, and/or treated with 4-OH-tamoxifen at 20 µM in the cell culture medium, as described in 1.1. The experiment was done in duplicate wells, in 6-well plates. After 24 hrs of treatment, cells were collected and either RNA was extracted for RT-qPCR or protein was extracted for Western Blot. […]"}, "[8]": {"test_system": "Mtm1^-/y mice", "assay": "Hanging test (whole-body strength) in Mtm1-/y mice", "type": "in vivo", "details": "at 12 weeks of age, mean ± SD, cut-off 60 seconds, ASO 3 mg/kg i.p. weekly, tamoxifen 10 mg/kg of diet", "method": "as §1, §2\nas §3, with “18763-18768). […]” for “18763-18768).”\nWhole-body strength of mice was evaluated using the hanging test. […] The latency time for the mouse to fall in the cage was measured, with a cut-off time of 60 seconds. […] The maximum hanging time was recorded. […]"}},
  "data": [
    {"smiles": "O=C(NN=Cc1cc(O)c(O)cc1O)c1cc2ccccc2cc1O", "note": "[hydroxy-Dynasore, 3-hydroxy-N'-[(2,4,5-trihydroxyphenyl)methylidene]naphthalene-2-carbohydrazide]", "values": [
      {"measurement": "IC50", "setting": "[1]", "result": 2.6, "unit": "µM"}
    ]},
    {"smiles": "COc1cc(-n2c(S)nc3ccccc3c2=O)c(Cl)cc1Cl", "note": "[m-divi 1, 3-(2,4-Dichloro-5-methoxyphenyl)-2-sulfanylquinazolin-4(3H)-one]", "values": [
      {"measurement": "IC50", "setting": "[2]", "result": 10, "unit": "µM"}
    ]},
    {"smiles": "CC/C(=C(\\c1ccccc1)c1ccc(OCCN(C)C)cc1)c1ccccc1", "note": "[tamoxifen, 2-[4-[(Z)-1,2-diphenylbut-1-enyl]phenoxy]-N,N-dimethylethanamine]", "values": [
      {"measurement": "survival rate", "setting": "[3]", "result": 70, "unit": "%"},
      {"measurement": "Disease Severity Score (DSS), mean score", "setting": "[4]", "result": 3.3},
      {"measurement": "DNM2 protein expression", "setting": "[5]", "result": "did not reduce"},
      {"measurement": "body weight", "setting": "[6]", "result": "15.3 ± 0.4", "unit": "g"},
      {"measurement": "Dnm2 mRNA expression", "setting": "[7]", "result": "did not reduce"},
      {"measurement": "holding time (hanging test)", "setting": "[8]", "result": "35.3 ± 24.4", "unit": "s"}
    ]}
  ]
}
